Data from ChEMBL document CHEMBL1134713, “Synthesis of a novel series of cytotoxic bisindole alkaloids” (Bioorg Med Chem Lett, 2001).

Experiments:
L1210 [1] = experiment: Cytotoxicity against L1210 cell proliferation, measured using microculture tetrazolium assay (MTA); assay type: functional, cell-based, Mus musculus
L1210 [2] = experiment: Evaluated for the dose-dependent accumulation and percent of cells in G1 phase was determined at a concentration of 5 uM; assay type: functional, Mus musculus
L1210 [3] = experiment: Compound was evaluated for the percent stimulation of cell proliferation at a concentration of 10 uM; assay type: functional, Mus musculus
L1210 [4] = experiment: Evaluated for the dose-dependent accumulation and percent of cells in G1 phase was determined at a concentration of 20 uM; assay type: functional, Mus musculus
L1210 [5] = experiment: Evaluated for the dose-dependent accumulation and percent of cells in G1 phase was determined at a concentration of 10 uM; assay type: functional, Mus musculus
L1210 [6] = experiment: Evaluated for the dose-dependent accumulation and percent of cells in G1 phase was determined at a concentration of 25 uM; assay type: functional, Mus musculus
L1210 [7] = experiment: Evaluated for the dose-dependent accumulation and percent of cells in G1 phase was determined at a concentration of 50 uM; assay type: functional, Mus musculus

SMILES	IC50 (L1210 [1]; Mus musculus, L1210)	further results
CC[C@]12C=C(C(=O)OC)c3c(CCNc4ccc(F)cc4)c4ccccc4n3[C@H]1N(O)CCC2	15.4 µM	
CC[C@]12C=C(C(=O)OC)c3c(CC4Nc5cc(OC)c(OC)c(OC)c5CC4c4c5n(c6ccccc46)[C@H]4N(O)CCC[C@@]4(CC)C=C5C(=O)OC)c4ccccc4n3[C@H]1N(O)CCC2 (some centres not stated)	2.4 µM	Cells (L1210 [2]): 61%
CC[C@]12C=C(C(=O)OC)c3c(CC4Nc5cc(Cl)cc(Cl)c5CC4c4c5n(c6ccccc46)[C@H]4N(O)CCC[C@@]4(CC)C=C5C(=O)OC)c4ccccc4n3[C@H]1N(O)CCC2 (some centres not stated)	> 10 µM	
CC[C@]12C=C(C(=O)OC)c3c(CC4Nc5cc(Cl)cc(Cl)c5C(Nc5cc(Cl)cc(Cl)c5)C4c4c5n(c6ccccc46)[C@H]4N(O)CCC[C@@]4(CC)C=C5C(=O)OC)c4ccccc4n3[C@H]1N(O)CCC2 (some centres not stated)	> 10 µM	Stimulation (L1210 [3]): 156%
CC[C@]12C=C(C(=O)OC)c3c(CC4Nc5c(F)cccc5C(Nc5ccccc5F)C4c4c5n(c6ccccc46)[C@H]4N(O)CCC[C@@]4(CC)C=C5C(=O)OC)c4ccccc4n3[C@H]1N(O)CCC2 (some centres not stated)	14.1 µM	
CC[C@]12C=C(C(=O)OC)c3c(CC4Nc5ccc(Cl)cc5C(Nc5ccc(Cl)cc5)C4c4c5n(c6ccccc46)[C@H]4N(O)CCC[C@@]4(CC)C=C5C(=O)OC)c4ccccc4n3[C@H]1N(O)CCC2 (some centres not stated)	> 10 µM	Stimulation (L1210 [3]): 126%
CC[C@]12C=C(C(=O)OC)c3c(CC4Nc5ccc(C(F)(F)F)cc5C(Nc5ccc(C(F)(F)F)cc5)C4c4c5n(c6ccccc46)[C@H]4N(O)CCC[C@@]4(CC)C=C5C(=O)OC)c4ccccc4n3[C@H]1N(O)CCC2 (some centres not stated)	> 10 µM	Stimulation (L1210 [3]): 152%
CC[C@]12C=C(C(=O)OC)c3c(CC4Nc5ccc(F)cc5CC4c4c5n(c6ccccc46)[C@H]4N(O)CCC[C@@]4(CC)C=C5C(=O)OC)c4ccccc4n3[C@H]1N(O)CCC2 (some centres not stated)	1.8 µM	Cells (L1210 [2]): 81%
CC[C@]12C=C(C(=O)OC)c3c(CC4Nc5ccc(OC)cc5C(OC)C4c4c5n(c6ccccc46)[C@H]4N(O)CCC[C@@]4(CC)C=C5C(=O)OC)c4ccccc4n3[C@H]1N(O)CCC2 (some centres not stated)	1.7 µM	Cells (L1210 [4]): 81%
CC[C@]12C=C(C(=O)OC)c3c(CC4Nc5ccc(Cl)cc5CC4c4c5n(c6ccccc46)[C@H]4N(O)CCC[C@@]4(CC)C=C5C(=O)OC)c4ccccc4n3[C@H]1N(O)CCC2 (some centres not stated)	3.6 µM	Cells (L1210 [5]): 77%
CC[C@]12C=C(C(=O)OC)c3c(CC4Nc5c(Cl)cccc5C(Nc5ccccc5Cl)C4c4c5n(c6ccccc46)[C@H]4N(O)CCC[C@@]4(CC)C=C5C(=O)OC)c4ccccc4n3[C@H]1N(O)CCC2 (some centres not stated)	> 10 µM	
CCOC(=O)c1ccc(NC2c3cc(C(=O)OCC)ccc3NC(Cc3c4n(c5ccccc35)[C@H]3N(O)CCC[C@@]3(CC)C=C4C(=O)OC)C2c2c3n(c4ccccc24)[C@H]2N(O)CCC[C@@]2(CC)C=C3C(=O)OC)cc1 (some centres not stated)	> 10 µM	Stimulation (L1210 [3]): 118%
CC[C@]12C=C(C(=O)OC)c3c(CC4Nc5ccc(O)cc5C(OC)C4c4c5n(c6ccccc46)[C@H]4N(O)CCC[C@@]4(CC)C=C5C(=O)OC)c4ccccc4n3[C@H]1N(O)CCC2 (some centres not stated)	0.9 µM	
CC[C@]12C=C(C(=O)OC)c3c(CC4Nc5ccc(OC)cc5CC4c4c5n(c6ccccc46)[C@H]4N(O)CCC[C@@]4(CC)C=C5C(=O)OC)c4ccccc4n3[C@H]1N(O)CCC2 (some centres not stated)	2.2 µM	Cells (L1210 [4]): 69%
CC[C@]12C=C(C(=O)OC)c3c(CC4Nc5ccccc5CC4c4c5n(c6ccccc46)[C@H]4N(O)CCC[C@@]4(CC)C=C5C(=O)OC)c4ccccc4n3[C@H]1N(O)CCC2 (stereo in doubt; 1)		IC50 (L1210 [1]; l1210): 2.7 µM; Cells (L1210 [6]): 80%
CC[C@]12C=C(C(=O)OC)c3c(CC4Nc5ccccc5CC4c4c5n(c6ccccc46)[C@H]4N(O)CCC[C@@]4(CC)C=C5C(=O)OC)c4ccccc4n3[C@H]1N(O)CCC2 (stereo in doubt; 6)		IC50 (L1210 [1]; l1210): 71 µM; Cells (L1210 [7]): 4.5%
